In patent publication US10519118B2, “KDM1A inhibitors for the treatment of disease” (Imago Biosciences, Inc., priority 2015, dated 2019):
Values joined by “and” are separate entries in the source; they are usually repeats but may differ in a detail not shown here. Identical values can stand only once.

Tests used:
Type in all cases: physicochemical
[1] = Gravimetric vapour sorption (GVS), hygroscopicity; conditions: for hygroscopicity: in words
Method: Typically 5-20 mg of sample was placed in a tared mesh stainless steel basket under ambient conditions. The sample was loaded and unloaded at 40% RH and 25° C. (typical room conditions). A moisture sorption isotherm was performed as outlined below (2 scans giving 1 complete cycle). The standard isotherm was performed at 25° C. at 10% RH intervals over a 0-90% RH range. Data analysis was carried out using Microsoft Excel using DVS Analysis Suite v6.2 (or 6.1 or 6.0).
Sorption isotherms were obtained using a SMS DVS Intrinsic moisture sorption analyzer, controlled by DVS Intrinsic Control software v1.0.1.2 (or v 1.0.1.3). The sample temperature was maintained at 25° C. by the instrument controls. The humidity was controlled by mixing streams of dry and wet nitrogen, with a total flow rate of 200 mL/min The relative humidity was measured by a calibrated Rotronic probe (dynamic range of 1.0-100% RH), located near the sample. The weight change, (mass relaxation) of the sample as a function of % RH was constantly monitored by the microbalance (accuracy±0.005 mg).

[2] = Solid-state storage stability at elevated temperature and humidity (40° C./75% RH, 25° C./95-97% RH)
[3] = Solvent solubility assessment with increasing volumes of solvent; set-up: key to Solubility observation: # = clear solution; x = suspension
Method: Example 1 was treated with increasing volumes of solvent (2-propanol (IPA), acetone, methylethyl ketone, ethyl acetate, tetrahydrofuran, acetonitrile, 1,4-dioxane, 90:10 IPA:water, 90:10 THF:water, tert-butylmethyl ether (MTBE), and n-heptane) until the material fully dissolved or until a maximum of 100 vol. had been used. After each addition of solvent, the system was stirred at 25° C. for 10 min before the addition of a new aliquot of solvent. Example 1 was readily soluble in 2-propanol (IPA), acetone, methylethyl ketone, ethyl acetate, tetrahydrofuran, acetonitrile, 1,4-dioxane, 90:10 IPA:water, and 90:10 THF:water, dissolving readily in 10 vol. solvent. MTBE and n-heptane were identified as anti-solvents when Example 1 was not soluble in 100 vol. solvent.
Amorphous Example 1 (10 mg) was treated with increasing volumes of solvent at 25° C. with stirring (Table #). […] For those instances where dissolution was not observed, the samples were placed at 50° C. for 10 minutes. To all samples still in suspension, a further 10 volumes of solvents were added and the sample placed at 25° C. The temperature was then once again increased to 50° C. and maintained until the end of the experiment. Further solvent was added until the material fully dissolved or until a maximum of 70 volumes had been used. Hydrochloric acid was then added (1.1 equivalents) to all samples. A cooling ramp was set to 5° C. at 0.1° C./min and the solutions or oils were stirred at this temperature overnight, yielding oils or solutions.
Crystalline bis tosylate Form 2 (30 mg) was treated with increasing volumes of solvent (n-Heptane, diethyl ether, ethyl acetate, isopropyl acetate, methylisobutyl ketone, 2-propanol, methylethyl ketone, acetone, dimethyl sulfoxide, water, tert-butylmethyl ether, cyclohexane, 1,4-dioxane, toluene, chloroform, 1,2-dimethoxyethane, tetrahydrofuran, N,N-dimethylformamide, acetonitrile, nitromethane, N-methylpyrrolidone, tetrahydrofuran:water 95:5, 2-propanol:water 95:5, or acetone:water 95:5 at 5, 10, 20, 30, 50, 70, or 100 vol total) until the material fully dissolved or until a maximum of 100 vol had been added. After each addition of solvent, the system was shaken gently for 10 minutes at 50° C. and then allowed to stand at ambient conditions for 5 minutes before the addition of a new aliquot of solvent. After the assessment was completed, any suspensions obtained were matured and clear solutions were cooled to 4° C. and held isothermally.

[4] = Chemical stability of Example 1 free base lots, HPLC purity re-test
Method: Various lots of Example 1 were analyzed by HPLC shortly after synthesis (analysis from 1-24 hours post-synthesis) and re-tested for purity a unit of time later.
Purity analysis was performed on an Agilent HP1100 series system equipped with a diode array detector and using ChemStation software vB.04.03 using one of the methods detailed below: […]

For `CN1CCN(C(=O)C(CN[C@@H]2C[C@H]2c2ccc(F)cc2)NC(=O)c2ccc(-n3ccnn3)cc2)CC1` (stereo partly drawn) [Example 1, N-[3-[[(1R,2S)-2-(4-Fluorophenyl)cyclopropyl]amino]-1-(4-methylpiperazin-1-yl)-1-oxopropan-2-yl]-4-(1H-1,2,3-triazol-1-yl)benzamide], the hygroscopicity [1] was “hygroscopic”, the “behaviour at high humidity” value ([2]; free base form) was “deliquesces” and the “stability at elevated storage conditions” value ([2]; free base, 25° C./97% RH and 40° C./75% RH) was “deliquesced”. The Solubility observation ([3]; 1-Butanol, 10 vol 25° C.) was “#”, the Solubility observation ([3]; 1-Propanol, 10 vol 25° C.) was “#” and the Solubility observation ([3]; 2-Propanol, 10 vol 25° C.) was “#”. For the same compound, the “solvent volume needed to dissolve” value ([3]; 25° C., IPA, acetone, methylethyl ketone, ethyl acetate, THF, acetonitrile, 1,4-dioxane, 90:10 IPA:water, 90:10 THF:water) was 10 vol, the “solvent volume needed to dissolve” value ([3]; 25° C., MTBE and n-heptane (anti-solvents)) was greater than 100 vol and the Solubility observation ([3]; Acetone, 10 vol 25° C.) was “#”. The Solubility observation ([3]; Acetone:Water (90:10), 10 vol 25° C.) was “#”, the Solubility observation ([3]; Acetone:Water (95:5), 10 vol 25° C.) was “#” and the Solubility observation ([3]; Acetonitrile, 10 vol 25° C.) was “#”. For the same compound, the Solubility observation ([3]; Anisole, 10 vol 25° C.) was “#”, the Solubility observation ([3]; Cyclohexane, 10 vol 25° C.) was “oil” and the Solubility observation ([3]; Cyclohexane, 10 vol 50° C.) was “oil”. For the same compound, the Solubility observation ([3]; Cyclohexane, 20 vol 25° C.) was “oil”, the Solubility observation ([3]; Cyclohexane, 20 vol 50° C.) was “oil” and the Solubility observation ([3]; Cyclohexane, 40 vol 50° C.) was “oil”. The Solubility observation ([3]; Cyclohexane, 70 vol 50° C.) was “oil”, the Solubility observation ([3]; Dichloromethane, 10 vol 25° C.) was “#” and the Solubility observation ([3]; Diethyl ether, 10 vol 25° C.) was “oil”. The Solubility observation ([3]; Diethyl ether, 10 vol 50° C.) was “oil”, the Solubility observation ([3]; Diethyl ether, 20 vol 25° C.) was “oil” and the Solubility observation ([3]; Diethyl ether, 20 vol 50° C.) was “oil”. The Solubility observation ([3]; Diethyl ether, 40 vol 50° C.) was “oil”, the Solubility observation ([3]; Diethyl ether, 70 vol 50° C.) was “oil” and the Solubility observation ([3]; Dimethyl sulfoxide, 10 vol 25° C.) was “#”. The Solubility observation ([3]; EtOH:Water (85:15), 10 vol 25° C.) was “#”, the Solubility observation ([3]; Ethanol, 10 vol 25° C.) was “#” and the Solubility observation ([3]; IPA:Water (85:15), 10 vol 25° C.) was “#”. The Solubility observation ([3]; Isopropyl acetate, 10 vol 25° C.) was “#”, the Solubility observation ([3]; MEK, 10 vol 25° C.) was “#” and the Solubility observation ([3]; MIBK, 10 vol 25° C.) was “#”. The Solubility observation ([3]; MeOH:Water (85:15), 10 vol 25° C.) was “#”, the Solubility observation ([3]; Methanol, 10 vol 25° C.) was “#” and the Solubility observation ([3]; Methyl acetate, 10 vol 25° C.) was “#”. For the same compound, the Solubility observation ([3]; Propyl acetate, 10 vol 25° C.) was “#”, the Solubility observation ([3]; Toluene, 10 vol 25° C.) was “#” and the Solubility observation ([3]; Water, 10 vol 25° C.) was “x”. For the same compound, the Solubility observation ([3]; Water, 10 vol 50° C.) was “x”, the Solubility observation ([3]; Water, 20 vol 25° C.) was “x” and the Solubility observation ([3]; Water, 20 vol 50° C.) was “oil”. For the same compound, the Solubility observation ([3]; Water, 40 vol 50° C.) was “oil”, the Solubility observation ([3]; Water, 70 vol 50° C.) was “oil” and the “solvent volume needed to dissolve” value ([3]; amorphous free base, most solvents at 25° C.) was 10 volumes. The observation in solvent ([3]; amorphous free base, water, diethyl ether, cyclohexane, up to 70 volumes, 25-50° C.) was “oils eventually formed”, the “Re-Test Purity” value ([4]; free base Lot 1, 49 days between tests) was 82% and the “Re-Test Purity” value ([4]; free base Lot 2, 16 days between tests) was 72%. The “stability at ambient conditions” value ([4]; free base form) was “degrades at ambient conditions over time” and the “Initial Purity” value ([4]; free base lots, HPLC 1-24 hours post-synthesis) was 93% and 81%.
With `CN1CCN(C(=O)[C@H](CCCN[C@@H]2C[C@H]2c2ccc(F)cc2)NC(=O)c2ccc(-n3ccnn3)cc2)CC1.Cc1ccc(S(=O)(=O)O)cc1.Cc1ccc(S(=O)(=O)O)cc1` [Example 1 bis tosylate Form 2, N—((S)-5-((1R,2S)-2-(4-fluorophenyl)cyclopropylamino)-1-(4-methylpiperazin-1-yl)-1-oxopentan-2-yl)-4-(1H-1,2,3-triazol-1-yl)benzamide bis-tosylate Form 2] the “solvent volume needed to dissolve” value ([3]; crystalline bis tosylate Form 2, all other solvents tested incl. water, remained a suspension) was greater than 100 vol, the “solvent volume needed to dissolve” value ([3]; crystalline bis tosylate Form 2, dimethylsulfoxide and N,N-dimethylformamide, 50° C. shaking) was 5 vol and the “solvent volume needed to dissolve” value ([3]; crystalline bis tosylate Form 2, tetrahydrofuran:water 95:5) was 10 vol.
In the case of `O=C(O)C(O)C(O)C(=O)O` (stereo not drawn) [tartrate], the GVS water uptake ([1]; 25° C., full cycle 0-90% RH) is reported as roughly 30 % w/w, the hygroscopicity [1] is reported as “highly hygroscopic” and the “Storage at 40° C. and 75% RH (form by XRPD)” value ([2]; one week / 7 days) is reported as “no change in form was observed”. For the same compound, the “Storage at both 40° C. and 75% RH and 25° C. and 95% RH (form, purity)” value ([2]; scaled-up salts) was “changes in crystallinity and form”.
